Data as given in US10894817B2, “Fatty acid modified urocortin-2 analogs for the treatment of diabetes and chronic kidney disease” (priority 2016, dated 2021).
Starred links: 1 amine or outer side, 2 acyl side, 3 side chain; linkers in the order of their positions; H or OH if unused. Non-standard residues stand in square brackets, D forms with d. Residues, ends and D or L forms follow the SMILES beside them. Groups on a side chain read outwards from the residue. *: point of attachment. C20 diacid = O=C(O)CCCCCCCCCCCCCCCCCCC(=O)*; C18 diacid = O=C(O)CCCCCCCCCCCCCCCCC(=O)*; γGlu = O=C(O)[C@H](CCC(=O)[*:2])N[*:1]; Palmitoyl = CCCCCCCCCCCCCCCC(=O)*; NMeI = CC[C@H](C)[C@H](NC)C(=O)O; AEEA = NCCOCCOCC(=O)O

Molecular target: T1, human CRHR2b (Homo sapiens, UniProt Q13324)
T1 construct: expressed in transfected cells; host or cells: Chinese Hamster Ovary (CHO) cells, transient transfection
T1 sequence (Q13324 1-438 isoform Q13324-2): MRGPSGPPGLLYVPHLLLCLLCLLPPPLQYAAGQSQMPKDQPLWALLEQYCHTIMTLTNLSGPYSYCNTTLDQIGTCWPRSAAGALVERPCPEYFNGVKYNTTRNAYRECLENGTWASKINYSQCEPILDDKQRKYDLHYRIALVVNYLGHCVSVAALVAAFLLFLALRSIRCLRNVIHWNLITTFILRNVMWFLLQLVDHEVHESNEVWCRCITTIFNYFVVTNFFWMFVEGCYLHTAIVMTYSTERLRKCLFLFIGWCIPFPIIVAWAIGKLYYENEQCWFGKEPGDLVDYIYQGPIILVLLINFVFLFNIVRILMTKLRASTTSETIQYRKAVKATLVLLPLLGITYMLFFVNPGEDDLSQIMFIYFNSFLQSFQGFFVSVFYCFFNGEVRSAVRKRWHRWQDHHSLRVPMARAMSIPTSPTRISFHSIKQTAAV
Experiment: human CRHR2b cell-based cAMP assay
Conditions: cAMP assay; Table 26, compounds of Example 9; read-out: hCRHR2b Average EC50
Procedure: CRHR agonistic activity is measured in a cell-based cAMP assay. Serial dilutions of the test peptides are made in assay buffer containing Hank's Balanced Salt Solution (HBSS, without phenol red) supplemented with 20 mM HEPES and 0.05% lactalbumin enzymatic hydrolysate (LAH) (“assay buffer”). […] A one to three dilution of the test peptides is used in both assays. Receptor over-expressing Chinese Hamster Ovary (CHO) cell line is used for the human CRHR2b assay. […] AF011406.1). Forty-eight hours after the transfection, the cells are centrifuged to remove the culture media and resuspended in fetal bovine serum containing 5% DMSO. They are cryofrozen and stored in vials in liquid nitrogen (20×10^6 cells/ml/vial). On the day of the assay, cells are thawed and resuspended in cold 30 ml culture media supplemented with 20 mM HEPES. The cells are then centrifuged to remove the media and washed once with HBSS supplemented with 20 mM HEPES. Finally, following the last centrifugation, the cells are resuspended in assay buffer. Thirty-thousand cells are used in the human CRHR2b assay for each treatment. The cells are dispensed into Costar 96-well black polystyrene half area EIA/RIA plates (Corning Incorporated, Corning, N.Y.) followed by the addition of the diluted peptides, each at a volume of 20 μL. The agonist induced cAMP levels are detected using a HTRF cAMP Dynamic 2 kit (CisBio, Bedford, Mass.). After incubation at 37° C. for 30 min, the assay is stopped by cell lysis via the addition of 20 μL of d2-labeled cAMP and followed by 20 μL of cryptate-labeled anti-cAMP antibody, as described by the manufacturer. Cellular cAMP (as a result of agonist stimulation) competes with the d2-labeled cAMP for binding to the antibody. HTRF detection is performed on an Envision plate reader (Perkin Elmer Life and Analytical Sciences, Waltham, Mass.) by measuring ratiometric emission at 620 and 665 nm after excitation at 320 nm. The data are converted to picomoles of cAMP using a standard curve obtained from the same assay performed with varying concentrations of unlabeled cAMP. […] The data are analyzed using a Curve Fitting Tool to calculate ED50. Numeric values shown below in Table 1 represent the mean of multiple runs (number of runs shown in parentheses) following the mean value±SEM.

Compound	EC50
CC[C@H](C)[C@H](NC)C(=O)N[C@H](C(=O)N[C@@H](CC(C)C)C(=O)N[C@@H](CO)C(=O)N[C@@H](CC(C)C)C(=O)N[C@@H](CC(=O)O)C(=O)N[C@H](C(=O)N1CCC[C@H]1C(=O)N[C@H](C(=O)NCC(=O)N[C@@H](CC(C)C)C(=O)N[C@@H](CC(C)C)C(=O)N[C@@H](CCC(N)=O)C(=O)N[C@H](C(=O)N[C@@H](CC(C)C)C(=O)N[C@@H](CC(C)C)C(=O)N[C@@H](CCC(=O)O)C(=O)N[C@@H](CCC(N)=O)C(=O)N[C@@H](CCC(=O)O)C(=O)N[C@@H](CCCCN)C(=O)N[C@@H](CCC(N)=O)C(=O)N[C@@H](CCC(=O)O)C(=O)N[C@@H](CCCCN)C(=O)N[C@@H](CCC(=O)O)C(=O)N[C@@H](CCCCN)C(=O)N[C@@H](CCC(N)=O)C(=O)N[C@@H](CCC(N)=O)C(=O)N[C@@H](C)C(=O)N[C@@H](CCCCNC(=O)CC[C@H](NC(=O)CC[C@H](NC(=O)COCCOCCNC(=O)CC[C@H](NC(=O)CC[C@H](NC(=O)CCCCCCCCCCCCCCCCCCC(=O)O)C(=O)O)C(=O)O)C(=O)O)C(=O)O)C(=O)N[C@H](C(=O)N[C@@H](CC(N)=O)C(=O)N[C@@H](C)C(=O)N[C@@H](CCC(N)=O)C(=O)N[C@H](C(=O)N[C@@H](CC(C)C)C(=O)N[C@@H](C)C(=O)N[C@@H](CCC(N)=O)C(=O)N[C@H](C(N)=O)C(C)C)[C@@H](C)CC)[C@@H](C)O)[C@@H](C)CC)[C@@H](C)CC)C(C)C)C(C)C [Compound 63] (H-[NMeI]VLSLDVPIGLLQILLEQEKQEKEKQQAK([γGlu-γGlu-AEEA-γGlu-γGlu-C20 diacid])TNAQILAQV-NH2)	1.3 nM
CC[C@H](C)[C@H](NC)C(=O)N[C@H](C(=O)N[C@H](C(=O)N[C@@H](CO)C(=O)N[C@@H](CC(C)C)C(=O)N[C@@H](CC(=O)O)C(=O)N[C@H](C(=O)N1CCC[C@H]1C(=O)N[C@H](C(=O)NCC(=O)N[C@@H](CC(C)C)C(=O)N[C@@H](CC(C)C)C(=O)N[C@@H](CCC(N)=O)C(=O)N[C@H](C(=O)N[C@@H](CC(C)C)C(=O)N[C@@H](CC(C)C)C(=O)N[C@@H](CCC(=O)O)C(=O)N[C@@H](CCC(N)=O)C(=O)N[C@@H](CCC(=O)O)C(=O)N[C@@H](CCCCN)C(=O)N[C@@H](CCC(N)=O)C(=O)N[C@@H](CCC(=O)O)C(=O)N[C@@H](CCCCN)C(=O)N[C@@H](CCC(=O)O)C(=O)N[C@@H](CCCCN)C(=O)N[C@@H](CCC(N)=O)C(=O)N[C@@H](CCC(N)=O)C(=O)N[C@@H](C)C(=O)N[C@@H](CCCCNC(=O)CC[C@H](NC(=O)COCCOCCNC(=O)COCCOCCNC(=O)CC[C@H](NC(=O)CC[C@H](NC(=O)CCCCCCCCCCCCCCCCCCC(=O)O)C(=O)O)C(=O)O)C(=O)O)C(=O)N[C@H](C(=O)N[C@@H](CC(N)=O)C(=O)N[C@@H](C)C(=O)N[C@@H](CCC(=O)O)C(=O)N[C@H](C(=O)N[C@@H](CC(C)C)C(=O)N[C@@H](C)C(=O)N[C@@H](CCC(N)=O)C(=O)N[C@H](C(N)=O)C(C)C)[C@@H](C)CC)[C@@H](C)O)[C@@H](C)CC)[C@@H](C)CC)C(C)C)[C@@H](C)O)C(C)C [Compound 66] (H-[NMeI]VTSLDVPIGLLQILLEQEKQEKEKQQAK([γGlu-AEEA-AEEA-γGlu-γGlu-C20 diacid])TNAEILAQV-NH2)	1.45 nM
CC[C@H](C)[C@H](N)C(=O)N[C@H](C(=O)N[C@@H](CC(C)C)C(=O)N[C@@H](CO)C(=O)N[C@@H](CC(C)C)C(=O)N[C@@H](CC(=O)O)C(=O)N[C@H](C(=O)N1CCC[C@H]1C(=O)N[C@H](C(=O)N[C@@H](CCCCNC(=O)COCCOCCNC(=O)COCCOCCNC(=O)CC[C@H](NC(=O)CC[C@H](NC(=O)CCCCCCCCCCCCCCCCC(=O)O)C(=O)O)C(=O)O)C(=O)N[C@@H](CC(C)C)C(=O)N[C@@H](CC(C)C)C(=O)N[C@@H](CCC(N)=O)C(=O)N[C@H](C(=O)N[C@@H](CC(C)C)C(=O)N[C@@H](CC(C)C)C(=O)N[C@@H](CCC(=O)O)C(=O)N[C@@H](CCC(N)=O)C(=O)N[C@@H](CCC(=O)O)C(=O)N[C@@H](CCCCN)C(=O)N[C@@H](CCC(N)=O)C(=O)N[C@@H](CCC(=O)O)C(=O)N[C@@H](CCCCN)C(=O)N[C@@H](CCC(=O)O)C(=O)N[C@@H](CCCCN)C(=O)N[C@@H](CCC(N)=O)C(=O)N[C@@H](CCC(N)=O)C(=O)N[C@@H](C)C(=O)N[C@H](C(=O)N[C@H](C(=O)N[C@@H](CC(N)=O)C(=O)N[C@@H](C)C(=O)N[C@@H](CCC(N)=O)C(=O)N[C@H](C(=O)N[C@@H](CC(C)C)C(=O)N[C@@H](C)C(=O)N[C@@H](CCC(N)=O)C(=O)N[C@H](C(N)=O)C(C)C)[C@@H](C)CC)[C@@H](C)O)[C@@H](C)O)[C@@H](C)CC)[C@@H](C)CC)C(C)C)C(C)C [Compound 49] (H-IVLSLDVPIK([AEEA-AEEA-γGlu-γGlu-C18 diacid])LLQILLEQEKQEKEKQQATTNAQILAQV-NH2)	2.86 nM
CC[C@H](C)[C@H](N)C(=O)N[C@H](C(=O)N[C@@H](CC(C)C)C(=O)N[C@@H](CO)C(=O)N[C@@H](CC(C)C)C(=O)N[C@@H](CC(=O)O)C(=O)N[C@H](C(=O)N1CCC[C@H]1C(=O)N[C@H](C(=O)NCC(=O)N[C@@H](CC(C)C)C(=O)N[C@@H](CC(C)C)C(=O)N[C@@H](CCC(N)=O)C(=O)N[C@H](C(=O)N[C@@H](CC(C)C)C(=O)N[C@@H](CC(C)C)C(=O)N[C@@H](CCC(=O)O)C(=O)N[C@@H](CCC(N)=O)C(=O)N[C@@H](CCC(=O)O)C(=O)N[C@@H](CCCCN)C(=O)N[C@@H](CCC(N)=O)C(=O)N[C@@H](CCC(=O)O)C(=O)N[C@@H](CCCCN)C(=O)N[C@@H](CCC(=O)O)C(=O)N[C@@H](CCCCNC(=O)COCCOCCNC(=O)COCCOCCNC(=O)CC[C@H](NC(=O)CC[C@H](NC(=O)CCCCCCCCCCCCCCCCC(=O)O)C(=O)O)C(=O)O)C(=O)N[C@@H](CCC(N)=O)C(=O)N[C@@H](CCC(N)=O)C(=O)N[C@@H](C)C(=O)N[C@H](C(=O)N[C@H](C(=O)N[C@@H](CC(N)=O)C(=O)N[C@@H](C)C(=O)N[C@@H](CCC(N)=O)C(=O)N[C@H](C(=O)N[C@@H](CC(C)C)C(=O)N[C@@H](C)C(=O)N[C@@H](Cc1c[nH]cn1)C(=O)N[C@H](C(N)=O)C(C)C)[C@@H](C)CC)[C@@H](C)O)[C@@H](C)O)[C@@H](C)CC)[C@@H](C)CC)C(C)C)C(C)C [Compound 46] (H-IVLSLDVPIGLLQILLEQEKQEKEK([AEEA-AEEA-γGlu-γGlu-C18 diacid])QQATTNAQILAHV-NH2)	11.7 nM
CCCCCCCCCCCCCCCC(=O)N[C@@H](CCC(=O)NCCCC[C@H](NC(=O)[C@@H](NC(=O)[C@H](CCC(N)=O)NC(=O)[C@H](CC(C)C)NC(=O)[C@H](CC(C)C)NC(=O)CNC(=O)[C@@H](NC(=O)[C@@H]1CCCN1C(=O)[C@@H](NC(=O)[C@H](CC(=O)O)NC(=O)[C@H](CC(C)C)NC(=O)[C@H](CO)NC(=O)[C@H](CC(C)C)NC(=O)[C@@H](NC(=O)[C@@H](N)[C@@H](C)CC)C(C)C)C(C)C)[C@@H](C)CC)[C@@H](C)CC)C(=O)N[C@@H](CC(C)C)C(=O)N[C@@H](CCC(=O)O)C(=O)N[C@@H](CCC(N)=O)C(=O)N[C@@H](CCC(=O)O)C(=O)N[C@@H](CCCCN)C(=O)N[C@@H](CCC(N)=O)C(=O)N[C@@H](CCC(=O)O)C(=O)N[C@@H](CCCCN)C(=O)N[C@@H](CCC(=O)O)C(=O)N[C@@H](CCCCN)C(=O)N[C@@H](CCC(N)=O)C(=O)N[C@@H](CCC(N)=O)C(=O)N[C@@H](C)C(=O)N[C@H](C(=O)N[C@H](C(=O)N[C@@H](CC(N)=O)C(=O)N[C@@H](C)C(=O)N[C@@H](CCCNC(=N)N)C(=O)N[C@H](C(=O)N[C@@H](CC(C)C)C(=O)N[C@@H](C)C(=O)N[C@@H](CCCNC(=N)N)C(=O)N[C@H](C(N)=O)C(C)C)[C@@H](C)CC)[C@@H](C)O)[C@@H](C)O)C(=O)O [Compound 22] (H-IVLSLDVPIGLLQIK([γGlu-Palmitoyl])LEQEKQEKEKQQATTNARILARV-NH2)	1.2 nM
